Reference: publication PMC4166525 (Organic letters, 2013)

Molecular target: T1, EgtB (Mycolicibacterium smegmatis, UniProt A0R5N0)
T1 sequence (A0R5N0 1-428): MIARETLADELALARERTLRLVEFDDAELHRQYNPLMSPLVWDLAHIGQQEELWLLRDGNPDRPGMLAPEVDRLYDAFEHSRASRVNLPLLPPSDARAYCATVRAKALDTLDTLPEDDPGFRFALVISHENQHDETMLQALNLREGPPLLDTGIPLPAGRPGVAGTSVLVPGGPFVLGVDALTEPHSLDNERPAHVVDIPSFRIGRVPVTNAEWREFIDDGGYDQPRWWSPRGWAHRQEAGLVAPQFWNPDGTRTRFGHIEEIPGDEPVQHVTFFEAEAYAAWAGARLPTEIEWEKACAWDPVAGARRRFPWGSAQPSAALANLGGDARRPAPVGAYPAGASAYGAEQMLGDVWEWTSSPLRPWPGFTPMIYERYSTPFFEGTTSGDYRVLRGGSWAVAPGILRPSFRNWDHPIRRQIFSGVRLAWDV
Assay: 1H-NMR assay of product […]
Type: biochemical
Settings: co-substrate γ-Glu-Cys

In the case of C[N+](C)(C)[C@@H](Cc1cnc[nH]1)C(=O)[O-] [compound 2, hercynine], the “1H-NMR assay of product 3” value is reported as “Native EgtB reaction in ergothioneine biosynthesis”.
